According to patent publication US4970225A, “Imidazolidine carboxylic acids and esters as blood platelet aggregation inhibitors” (Bristol-Myers Squibb Company, priority 1990, dated 1990):
Values after ≈ are worked out from the molar mass of the structure shown.

System: ADP-induced aggregation of human platelets
Format: cell-based
Details: Table 1; human platelet rich plasma; ADP 0.5 mcg/mL; read-out: Inhibition of Human Platelet Aggregation IC50 vs. ADP
Experimental: The aggregometer method of Born, C. […] Clin. Med. 1964, 64, 548-599 was used to assess the in vitro activity of the various compounds as to the inhibition of adenosine diphosphate (ADP) and collagen-induced platelet aggregation. The human volunteer donor's arm is cleansed with 70% ethyl alcohol. A sterile 20 ml syringe and needle are used to withdraw 20 ml of blood. The blood is immediately added to a test tube containing 3.8% sodium citrate to prevent clotting (1 part citrate to 9 parts blood).
Platelet rich plasma (PRP) was separated by centrifugation for 10 minutes at 1000 rpm (140 xg) from citrated (3.8%) human blood. All glassware used for preparation of PRP is silicon treated. ADP in final concentration of 0.5 mcg/mL or 0.05 mL of a collagen suspension prepared according to the method described by Evans, G., et al., J. Exp. Med., 1968, 128, 877-894 was used to induce aggregation. The various compounds tested were dissolved in dimethylsulfoxide (DMSO) so that 5 mcl added to the platelet rich plasma would yield the desired test concentration. Vehicle control trials were done and compared with aggregation induced in platelet rich plasma containing various concentrations of the test compounds. Dose response curves were obtained and Inhibitor Concentration (IC50) values calculated.

Structure (SMILES) | IC50 [µg/mL]
O=C(O)CCCCCCCCN1C(=O)C(c2ccccc2)N(c2ccccc2)C1=O (centres unmarked) [Example 2, 2,5-dioxo-3,4-diphenyl-1-imidazolidinenonanoic acid] | 11.9 (≈ 29.1 µM)
COC(=O)CCCCCCCCN1C(=O)C(c2ccccc2)N(c2ccccc2)C1=O (centres unmarked) [Example 1, methyl 2,5-dioxo-3,4-diphenyl-1-imidazolidinenonanoate] | 32 (≈ 75.7 µM)
